How the values were obtained:
Metaphase II oocytes = test: Induced enucleation of activated Metaphase II oocytes (2nd polar body extrusion); format: cell-based; details: MII oocytes activated with 7% EtOH or 2 μM ionomycin; Taxol 5 μg/mL, cycloheximide 10 μg/mL, demecolcine 0.4 μg/mL; control 3.7%
Method: Metaphase II oocytes are activated with 7% EtOH or 2 μM ionomycin, followed by treatment with Taxol (5 μg/mL), or cycloheximide (10 μg/mL) or demecolcine (0.4 μg/mL), resulting in the 2nd polar body extrusion.
With demecoleine-induced enucleation, activated oocytes are treated with the microttibuline destabilizing drug, demecolcine. The resulting cytoplasts are competent to support term developments. Often, cytoplasts fail to complete the second polar body extrusion. Induced enucleation can take place, just prior to activation or just after activation.

meiotic spindle = test: Effect of demecolcine on meiotic spindle and chromatin in activated mouse oocytes; format: cell-based; details: 0.4 μg/mL, SrCl2-activated oocytes
Method: (§1) In order to induce superovulation in donor mice, female CF-1 mice (Charles River Laboratories) of breeding age were injected with Pregnant Mare Serum Gonadotropin (PMSG, Calbiochem) and Human Chorionic Gonadotropin (hCG, Calbiochem). For both hormones, 5IU was administered per mouse via intraperitioneal injection. PMSG was injected 64 hours before collection and hCG was given 48 hours later. Oviducts were dissected from mice euthanized by CO2 asphyxiation and placed in FHM media (Chemicon) at 37° C. Oocytes were separated from surrounding cumulus cells by a brief exposure to bovine hyaluronidase (HA, Sigma, 150 units/ml, <10 minutes). Oocytes with poor morphology (lysed, fragmented, dark pigmentation) were discarded. Oocytes were washed three times in FHM media and randomly sorted into treatment groups. Some oocytes were immediately fixed (see below) at Metaphase of Meiosis II (MII). […]
(§2) To localize Apc11, a polyclonal antibody raised in rabbits against N-terminal amino acids of human Apc11 (Santa Cruz) was used as a primary antibody. […] Imaging was accomplished on a Zeiss Axiovert 200M inverted fluorescence microscope coupled to a Roper CoolSnapFx camera through a 63× oil emersion objective and 10× eyepiece/camera lens. […]

Rec8 = test: Effect of demecolcine on Rec8 localization in mouse oocytes; format: cell-based; details: 0.4 μg/mL, SrCl2-activated oocytes
Method: (§3) In order to induce superovulation in donor mice, female CF-1 mice (Charles River Laboratories) of breeding age were injected with Pregnant Mare Serum Gonadotropin (PMSG, Calbiochem) and Human Chorionic Gonadotropin (hCG, Calbiochem). For both hormones, 5IU was administered per mouse via intraperitioneal injection. PMSG was injected 64 hours before collection and hCG was given 48 hours later. Oviducts were dissected from mice euthanized by CO2 asphyxiation and placed in FHM media (Chemicon) at 37° C. Oocytes were separated from surrounding cumulus cells by a brief exposure to bovine hyaluronidase (HA, Sigma, 150 units/ml, <10 minutes). Oocytes with poor morphology (lysed, fragmented, dark pigmentation) were discarded. Oocytes were washed three times in FHM media and randomly sorted into treatment groups. Some oocytes were immediately fixed (see below) at Metaphase of Meiosis II (MII).
(§4) For SrCl2 activation, the denuded oocytes were washed 3 times in FHM, 3 to 4 times in KSOM (without Ca^+2, Chemicon) equilibrated to 37° C. in 5% CO2, and then incubated in KSOM containing 10 mM strontium chloride at 37° C. with 5% CO2. After 15 minutes, some oocytes, depending on experimental design, were transferred to KSOM containing both SrCl2 (10 mM) and demecolcine (0.4 μg/mL) and incubated at 37° C. with 5% CO2. […]

Apc11 = test: Effect of demecolcine on Apc11 spatial localization in mouse oocytes; format: cell-based; details: 0.4 μg/mL, SrCl2-activated oocytes, AII, TII, Interphase
Method: as §1, §2

Cdc20 = test: Effect of demecolcine on Cdc20 localization in mouse oocytes; format: cell-based; details: 0.4 μg/mL, SrCl2-activated oocytes, throughout development
Method: as §3, §4

[1] = tested on: mouse oocytes arrested at MII; details: standard ethanol activation protocol, data not shown

**Q.** How did the “induced enucleation, 2nd polar body extrusion” value (“induced enucleation” for short) (Metaphase II oocytes) turn out when CC(=O)O[C@H]1C(=O)[C@@]2(C)[C@H]([C@H](OC(=O)c3ccccc3)[C@]3(O)C[C@H](OC(=O)[C@H](O)[C@@H](NC(=O)c4ccccc4)c4ccccc4)C(C)=C1C3(C)C)[C@]1(OC(C)=O)CO[C@@H]1C[C@@H]2O [Taxol] was run?
**A.** 3.6%

**Q.** How did the “induced enucleation” value (Metaphase II oocytes) turn out when C[C@@H]1C[C@@H]([C@H](O)CC2CC(=O)NC(=O)C2)C(=O)[C@@H](C)C1 [cycloheximide] was run?
**A.** 16.3%

**Q.** How did the extrusion of chromatin (meiotic spindle; Interphase (FIG. 16)) turn out when CN[C@H]1CCc2cc(OC)c(OC)c(OC)c2-c2ccc(OC)c(=O)cc21 [demecolcine] was run?
**A.** completely extrudes its chromatin in the second polar body

**Q.** What about the meiotic spindle integrity (meiotic spindle; compared to control eggs) of the same compound?
**A.** severely disrupted

**Q.** And the “Rec8 localization during Anaphase” value (Rec8; Anaphase II)?
**A.** aggregate in an area surrounding the chromatin, but not directly over it

**Q.** And the “Rec8 localization during Telophase” value (Rec8; Telophase II, continues into Interphase)?
**A.** direct colocalization (purple spots) with the chromatin

**Q.** What about the Apc11 staining pattern (Apc11) of the same compound?
**A.** non-distinct ataxia across the entire oocyte with no evidence of colocalization in any stage of development

**Q.** What about the Cdc20 staining pattern (Cdc20) of the same compound?
**A.** low levels of muddled signal across the cytoplasm

**Q.** What about the “induced enucleation” value (Metaphase II oocytes) of the same compound?
**A.** 54%

**Q.** For CCO [ethanol], which “eggs per experiment that failed to leave MII” value [1] is on record?
**A.** ≤ 50%

Source: patent US20130102838A1, “Oocyte Spindle-Associated Factors Improve Somatic Cell Cloning” (WORCESTER POLYTECHNIC INSTITUTE, priority 2007, published 2013)
